# From PubChem BioAssay (NCI)
#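 Values below derive from 48-hour exposures of cells grown in 96-well plates, with endpoints linearly interpolated between the two concentrations bracketing the appropriate inhibition level. Abbreviation: GI50, concentration required for 50% inhibition of growth. TGI: concentration producing complete growth inhibition.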
# Assays:
# Experiment in all cases: DTP human tumour cell line panel, 48 h
# DU-145 prostate = tested on: DU-145 prostate
# IGROV1 ovarian = tested on: IGROV1 ovarian
# M14 melanoma = tested on: M14 melanoma
# NCI-H23 lung = tested on: NCI-H23 lung
# OVCAR-8 ovarian = tested on: OVCAR-8 ovarian
# SF-268 CNS = tested on: SF-268 CNS
# SNB-19 CNS = tested on: SNB-19 CNS
# SNB-75 CNS = tested on: SNB-75 CNS
SMILES,GI50 (DU-145 prostate) [µM],TGI (DU-145 prostate) [µM],GI50 (IGROV1 ovarian) [µM],TGI (IGROV1 ovarian) [µM],GI50 (M14 melanoma) [µM],TGI (M14 melanoma) [µM],GI50 (NCI-H23 lung) [µM],TGI (NCI-H23 lung) [µM],GI50 (OVCAR-8 ovarian) [µM],TGI (OVCAR-8 ovarian) [µM],GI50 (SF-268 CNS) [µM],TGI (SF-268 CNS) [µM],GI50 (SNB-19 CNS) [µM],TGI (SNB-19 CNS) [µM],GI50 (SNB-75 CNS) [µM],TGI (SNB-75 CNS) [µM]
CCN(CC)CCCC(C)Nc1ccnc2cc(Cl)c(SCc3ccccc3)cc12 (centres undefined),3.45,13.5,1.81,4.95,0.189,0.351,1.55,3.57,1.73,3.44,1.59,3.65,1.78,4.41,1.66,3.32
COc1cccc(-c2cc(NCc3ccc4c(c3)OCO4)nc(N)n2)c1,0.125,12.1,0.143,19.1,0.0479,1.91,0.135,16.5,0.123,5.2,3.29,22.9,0.143,45.4,0.0368,14.4
COc1ccc(OC)c(/C=C/c2cnnc3ccccc23)c1,–,> 10,–,> 10,–,> 10,–,> 10,–,> 10,–,> 10,–,> 10,–,> 10
Cc1cccc2c(=O)c3c(sc12)c(NCCN)nc1ccccc13,0.981,1.97,0.582,1.26,0.808,1.55,0.87,1.96,0.885,1.98,1.18,3.88,0.948,2.56,0.448,2.79
O=C(Nc1cccc(-n2cc(-c3ccncc3)c(-c3ccc(O)c(Cl)c3)n2)c1)Nc1ccc(Cl)c(C(F)(F)F)c1,2.54,7.76,2.82,8.12,1.79,3.77,2.1,6.5,–,–,2.46,8.1,3.63,> 100,1.23,6.85
N=C(N)c1ccc(-c2ccc(-c3ccco3)o2)cc1F,3.27,11.5,2.13,6.02,1.88,3.76,–,–,2.31,6.53,2.9,10.4,2.48,13.4,1.66,7.23
CCN1CCN(Cc2ccc3cc(C(=O)Nc4cc(NC(=O)c5ccc6c(c5)OCCO6)ccc4F)ccc3n2)CC1,0.0371,1.18,0.0297,0.848,0.0505,11.8,0.121,5.27,0.0571,12.5,0.0742,10,0.165,11.2,0.0178,0.456
CCOC(=O)c1c2c(n3cccc(F)c13)C(=O)c1ncccc1C2=O,0.0761,2.84,1.6,24.9,0.049,1.29,0.173,3.09,1.17,7.47,0.0963,28.2,0.0703,4.49,1.72,64.9
CC(=O)O[C@@H]1CC(=O)O[C@@H]2C[C@@H](CC/C(Cl)=C/C/C=C\1C)O[C@@H]2CO,> 22.1,> 25,> 25,> 25,> 25,> 25,> 25,> 25,> 25,> 25,> 25,> 25,> 25,> 25,> 25,> 25
O=C(O)C#Cc1ccc([N+](=O)[O-])cc1,–,> 100,–,> 100,–,> 100,–,> 100,–,> 100,–,> 100,–,> 100,–,–
COc1ccc(OC)c2c3c(ncc12)-c1cc2c(cc1C3)OCO2,48.4,> 100,4.24,> 100,0.316,> 100,–,–,9.48,> 100,–,–,> 100,> 100,> 100,> 100
CC1=C(C(=O)Nc2ccc(Cl)c(Cl)c2)C(c2cccc(O)c2)NC(=S)N1 (centres undefined),7.28,14.5,12.8,44.2,13.6,26.7,–,–,15.9,28.1,8.35,17,11.4,30.3,11.8,47.8
COc1ccc2cc(C(=O)/C=C/c3ccccc3OC)ccc2c1,2.63,8.07,0.769,4.06,4.34,25.6,5.02,23.3,2.71,7.34,> 20.6,> 100,4.37,> 51.4,4.06,> 51.6
CCOCC[P+](c1ccccc1)(c1ccccc1)c1ccccc1,27.5,> 100,13.5,63.7,26.5,> 100,17.5,80.9,22.2,> 100,27.3,> 100,21.3,> 100,10.8,53.4
COc1ccc2c(c1)c(=O)oc1cc(OC/C(=N\O)c3ccc(F)cc3)ccc12,33.3,> 100,20.5,50.5,15.7,30.7,20.4,54.3,27.3,97.5,24.9,> 100,12.2,58.8,18.5,47.9
O=C(Nc1cccc2ccccc12)c1cc2ccccc2cc1O,3.84,> 100,1.46,7.27,3.14,20.4,1.9,8.84,2.52,8.25,3.47,39.1,3.17,> 100,1.6,6.11
